Where no end group is shown, it is not given here.
Assays:
[1] = tested on: H460 lung cancer cell line; assay: Recovery of sensitivity of NK cells to cancer cells decreased by TGF-β; assay type: cell-based; conditions: H460 target cells pretreated with 20 μM peptide or 5 μM SB431542 plus 10 ng/ml TGF-β; fresh NK92 effector cells, E:T 20:1; 4 hours
Description: To this end, first, 1×10^5 cells/ml of a H460 lung cancer cell line was added with 20 μM the peptide of Example [1-5] or 5 μM a TGF-β signal inhibitor SB431542, respectively, cultured at 37° C. for 2 hours, and then added with 10 ng/ml of TGF-β, and cultured again for 24 hours under the same conditions, respectively. Then, the cells were added with 20 μM the peptide of Example [1-5] or 5 μM SB431542, cultured at 37° C. for 2 hours, and then added with 10 ng/ml of TGF-β, and cultured under the same conditions for 24 hours, respectively. 1×10^6 cells/ml of the H460 cells cultured above were cultured for 1 hour at 37° C. with a culture medium added with 5 μl of calcein-AM (Invitrogen) and stained, and then centrifuged at 1000 rpm for 5 minutes and washed to be prepared as ‘target cells.’
(§1) As described above, the target cells stained with calcein-AM were dispensed in a 96-well plate, respectively, and treated with untreated (fresh) NK92 cells as effector cells at an E:T ratio of 20:1, and cultured at 37° C. for 4 hours. The culture medium cultured above was centrifuged at 100 rcf for 5 minutes to separate the supernatant, and 100 μl each was dispensed into a 96-well black plate, and then ELISA assay (Fluorescence 480 nm/530 nm, SpectraMax i3x Molecular Device) was performed.

NK92 cells [2] = assay: Recovery of cytotoxicity of NK92 cells decreased by TGF-β (calcein-AM release); assay type: cell-based; conditions: effector NK92 cells pretreated with 20 μM peptide or 5 μM SB431542 plus 10 ng/ml TGF-β; target cells H460, H3122, K562; E:T 20:1; 4 hours
Description: NK92 cells were cultured in a 37° C. CO2 incubator (water jacketed incubator, Thermo electron corporation) supplied with 5% CO2 by adding an α-MEM (Welgene) culture medium added with 12.5% fetal bovine serum (FBS, Corning, united states origin, 35-015-CV) and 12.5% horse serum (Gibco) according to ATCC culture conditions with 0.2 mM myo-inositol, 0.1 mM 2-mercaptoethanol, 0.02 mM folic acid, 1% antibiotics-antimycotic (Gibco) and IL-2 cytokine (Peprotech) at a concentration of 20 ng/ml to be used as a culture medium.
The cells were cultured in about 20 to 30 ml in a T-75 flask (Thermo) at a concentration of 1×10^5 cells/ml, and centrifuged at 1000 rpm for 5 minutes every 2 to 3 days using a centrifuge (Beckman Coulter) to remove the supernatant, and then the culture medium was replaced. […]
as §1, with “The” for “As described above, the”, “calcein-AM in Example [2-2]” for “calcein-AM”, “the” for “untreated (fresh) NK92 cells as”, “prepared in Example [2-1]. […]” for “at an E:T ratio of 20:1, and cultured at 37° C. for 4 hours.”

primary NK cells = assay: Recovery of cytotoxicity of primary NK cells decreased by TGF-β (calcein-AM release); assay type: cell-based, human; conditions: effector primary NK cells pretreated with 20 μM peptide plus 10 ng/ml TGF-β; target cells H460, H3122, K562; E:T 10:1; 4 hours
Description: 2 μl of Rosettesep Human CD3 depletion cocktail (STEMCELL technologies, catalog #15621) per 1 ml of blood was added to umbilical cord blood (IRB approval number P01-201610-31-002) donated from the hospital and reacted for 20 minutes. […] At this time, it could be noted that the blood and the Ficoll layer were not mixed. To separate the cell layer from the blood, red blood cells and CD3 cells were isolated and discharged from the blood by centrifugation under conditions of 2000 rpm and Decel 0 for 25 minutes using a centrifuge (Beckman Coulter). The CD3-isolated cells reacted with 10 ml of an ACK buffer for 10 minutes to remove remaining red blood cells, and then washed twice using phosphate-buffered saline (PBS) added with 2% FBS. The washing was performed by centrifuging at 1500 rpm for 5 minutes using a centrifuge (Beckman Coulter) to remove the supernatant. The cells obtained above were used to be cultured as NK cells.
The NK cells were cultured by adding alpha-MEM (Welgene) added with 10% FBS (Corning, United States origin, 35-015-CV) with 10 ng/ml IL-15 (Peprotech), 10 ng/ml IL-21 (Peprotech), […] hydrocortisone (Peprotech) and 1% antibiotics-antimycotic (Gibco). […]

NK92 cells [3] = assay: Fratricide inhibition of NK cells; assay type: cell-based; conditions: NK92 target cells pretreated with 20 μM peptide or 5 μM SB431542 plus 10 ng/ml TGF-β; fresh NK92 (20:1) or primary NK (10:1) effector cells; 4 hours
Description: To this end, 1×10^6 cells/ml of the NK92 cells cultured in the same manner as Example [2-1] were cultured for 1 hour at 37° C. with a culture medium added with 5 μl of calcein-AM (Invitrogen) and stained, and then centrifuged at 1000 rpm for 5 minutes and washed to be prepared as ‘target cells.’ As described above, the target cells stained with calcein-AM were dispensed in a 96-well plate, respectively, and treated with untreated (fresh) NK92 cells or primary NK cells as effector cells at the ratio of 20:1 or 10:1 in the same manner as Example [2-3], and cultured at 37° C. for 4 hours. The culture medium cultured above was centrifuged at 100 rcf for 5 minutes to separate the supernatant, and 100 μl each was dispensed into a 96-well black plate, and then ELISA assay (Fluorescence 480 nm/530 nm, SpectraMax i3x Molecular Device) was performed.

For “GSKKVILDLPLVI [peptide of Example [1-5]]”, the “cytotoxicity of the NK cells for treated H460 cells” value [1] was “recovered again”, the “cytotoxicity of NK92 cells” value (NK92 cells [2]) was “recovered” and the “cytotoxicity of primary NK cells” value (primary NK cells) was “equally confirmed”.

For `NC(=O)c1ccc(-c2nc(-c3ccc4c(c3)OCO4)c(-c3ccccn3)[nH]2)cc1` [SB431542], the “cytotoxicity of the NK cells for treated H460 cells” value [1] was “recovered again”, the “cytotoxicity of NK92 cells” value (NK92 cells [2]) was “recovered” and the “fratricide activity of the NK cells” value (NK92 cells [3]) was “significantly reduced”.

— patent US20250230190A1, “COMPOSITION FOR ENHANCING ACTIVITY OF NATURAL KILLER CELLS” (Ingenium Therapeutics, priority 2021, published 2025)
